# Measured values reported in patent US11109593B2, “Isoxazolin-5-one derivative and herbicide containing same as active ingredient” (HOKKO CHEMICAL INDUSTRY CO., LTD., priority 2017, dated 2021).
# Test system: Scirpus juncoides
# Experiment: Test Example 2: herbicidal effect test by treatment during growing period in paddy rice cultivation (seven days after seeding)
# Type: in vivo
# Conditions: 120 g/10a active ingredient, assessed 14 days after treatment, dry weight vs untreated area
# How it was run: (§1)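 Seeds sown 0–1 cm deep in puddled, fertilised paddy soil with about 3 cm standing water in a glass greenhouse. Diluted emulsion dropped into the water seven days after seeding at 120 g active ingredient per 10 ares. Herbicidal rate (%) from mean dry weight vs untreated, duplicate, 14 days after treatment.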
row,Compound,Herbicidal rate (%) Scirpus juncoides
1,C=CCn1oc(=O)c(Cc2ccccc2N(S(=O)(=O)C(F)(F)F)S(=O)(=O)C(F)(F)F)c1C [Compound 1-985],60%
2,COCC(C)n1oc(=O)c(Cc2ccccc2N(C(=O)OCC(C)C)S(=O)(=O)C(F)(F)F)c1C (centres unmarked) [Compound 1-675],90%

# Test system: Echinochloa crus-galli
# Experiment: as above
# Type: in vivo
# Conditions: 120 g/10a active ingredient, assessed 14 days after treatment, dry weight vs untreated area
# How it was run: as §1
row,Compound,Herbicidal rate (%) Echinochloa crus-galli
1,C=CCn1oc(=O)c(Cc2ccccc2N(S(=O)(=O)C(F)(F)F)S(=O)(=O)C(F)(F)F)c1C [Compound 1-985],90%
2,COCC(C)n1oc(=O)c(Cc2ccccc2N(C(=O)OCC(C)C)S(=O)(=O)C(F)(F)F)c1C (centres unmarked) [Compound 1-675],90%

# Test system: broad leaf weeds (Lindernia pyxidaria and Monochoria vaginalis)
# Experiment: as above
# Type: in vivo
# Conditions: Lindernia pyxidaria, 120 g/10a active ingredient, assessed 14 days after treatment, dry weight vs untreated area
# How it was run: as §1
row,Compound,Herbicidal rate (%) Lindernia pyxidaria
1,C=CCn1oc(=O)c(Cc2ccccc2N(S(=O)(=O)C(F)(F)F)S(=O)(=O)C(F)(F)F)c1C [Compound 1-985],60%
2,COCC(C)n1oc(=O)c(Cc2ccccc2N(C(=O)OCC(C)C)S(=O)(=O)C(F)(F)F)c1C (centres unmarked) [Compound 1-675],90%

# Same assay, conditions: Monochoria vaginalis, 120 g/10a active ingredient, assessed 14 days after treatment, dry weight vs untreated area
row,Compound,Herbicidal rate (%) Monochoria vaginalis
1,C=CCn1oc(=O)c(Cc2ccccc2N(S(=O)(=O)C(F)(F)F)S(=O)(=O)C(F)(F)F)c1C [Compound 1-985],60%
2,COCC(C)n1oc(=O)c(Cc2ccccc2N(C(=O)OCC(C)C)S(=O)(=O)C(F)(F)F)c1C (centres unmarked) [Compound 1-675],90%

# Test system: Echinochloa crus-galli
# Experiment: Test Example 4: herbicidal effect test by treatment of leave and stem in dry field farming (seven days after seeding)
# Type: in vivo
# Conditions: 120 g/10a active ingredient; emulsion sprayed seven days after seeding; evaluated 14 days after treatment
# How it was run: (§2)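 Twenty seeds per species were mixed into the top 1 cm of alluvial soil in 36 cm^2 pots; emulsions were sprayed seven days after seeding at 100 L per 10 ares (120 g active ingredient per 10 ares). Herbicidal rate (%) = {1 − treated/untreated mean dry weight} × 100, 14 days after treatment, duplicate.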
row,Compound,"herbicidal effect (herbicidal rate), Echinochloa crus-galli"
1,C=CCn1oc(=O)c(Cc2ccccc2N(S(=O)(=O)C(F)(F)F)S(=O)(=O)C(F)(F)F)c1C [Compound 1-985],90%
2,COCC(C)n1oc(=O)c(Cc2ccccc2N(C(=O)OCC(C)C)S(=O)(=O)C(F)(F)F)c1C (centres unmarked) [Compound 1-675],90%

# Test system: Chenopodium album
# Experiment: as above
# Type: in vivo
# Conditions: 120 g/10a active ingredient; emulsion sprayed seven days after seeding; evaluated 14 days after treatment
# How it was run: as §2
row,Compound,"herbicidal effect (herbicidal rate), Chenopodium album"
1,C=CCn1oc(=O)c(Cc2ccccc2N(S(=O)(=O)C(F)(F)F)S(=O)(=O)C(F)(F)F)c1C [Compound 1-985],60%
2,COCC(C)n1oc(=O)c(Cc2ccccc2N(C(=O)OCC(C)C)S(=O)(=O)C(F)(F)F)c1C (centres unmarked) [Compound 1-675],40%

# Test system: southern crabgrass
# Experiment: as above
# Type: in vivo
# Conditions: 120 g/10a active ingredient; emulsion sprayed seven days after seeding; evaluated 14 days after treatment
# How it was run: as §2
row,Compound,"herbicidal effect (herbicidal rate), southern crabgrass"
1,C=CCn1oc(=O)c(Cc2ccccc2N(S(=O)(=O)C(F)(F)F)S(=O)(=O)C(F)(F)F)c1C [Compound 1-985],60%
2,COCC(C)n1oc(=O)c(Cc2ccccc2N(C(=O)OCC(C)C)S(=O)(=O)C(F)(F)F)c1C (centres unmarked) [Compound 1-675],90%

# Test system: Amaranthus viridis
# Experiment: as above
# Type: in vivo
# Conditions: 120 g/10a active ingredient; emulsion sprayed seven days after seeding; evaluated 14 days after treatment
# How it was run: as §2
row,Compound,"herbicidal effect (herbicidal rate), Amaranthus viridis"
1,C=CCn1oc(=O)c(Cc2ccccc2N(S(=O)(=O)C(F)(F)F)S(=O)(=O)C(F)(F)F)c1C [Compound 1-985],60%
2,COCC(C)n1oc(=O)c(Cc2ccccc2N(C(=O)OCC(C)C)S(=O)(=O)C(F)(F)F)c1C (centres unmarked) [Compound 1-675],40%

# Test system: Echinochloa crus-galli
# Experiment: Test Example 3: herbicidal effect test by treatment of dry field farming soil (one day after seeding)
# Type: in vivo
# Conditions: 120 g/10a active ingredient, evaluated 14 days after treatment
# How it was run: (§3)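 Alluvial dry-field soil in pots, top 1 cm mixed with 20 seeds per weed species. One day after seeding, the water-diluted emulsion was sprayed onto the soil surface at 100 L per 10 ares (120 g active ingredient per 10 ares). Duplicate pots; herbicidal rate (%) from plant dry weight versus untreated, 14 days after treatment.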
row,Compound,"herbicidal rate, Echinochloa crus-galli"
1,C=CCn1oc(=O)c(Cc2ccccc2N(S(=O)(=O)C(F)(F)F)S(=O)(=O)C(F)(F)F)c1C [Compound 1-985],70%
2,COCC(C)n1oc(=O)c(Cc2ccccc2N(C(=O)OCC(C)C)S(=O)(=O)C(F)(F)F)c1C (centres unmarked) [Compound 1-675],90%

# Test system: Chenopodium album
# Experiment: as above
# Type: in vivo
# Conditions: 120 g/10a active ingredient, evaluated 14 days after treatment
# How it was run: as §3
row,Compound,"herbicidal rate, Chenopodium album"
1,C=CCn1oc(=O)c(Cc2ccccc2N(S(=O)(=O)C(F)(F)F)S(=O)(=O)C(F)(F)F)c1C [Compound 1-985],80%
2,COCC(C)n1oc(=O)c(Cc2ccccc2N(C(=O)OCC(C)C)S(=O)(=O)C(F)(F)F)c1C (centres unmarked) [Compound 1-675],90%

# Test system: southern crabgrass
# Experiment: as above
# Type: in vivo
# Conditions: 120 g/10a active ingredient, evaluated 14 days after treatment
# How it was run: as §3
row,Compound,"herbicidal rate, southern crabgrass"
1,C=CCn1oc(=O)c(Cc2ccccc2N(S(=O)(=O)C(F)(F)F)S(=O)(=O)C(F)(F)F)c1C [Compound 1-985],70%
2,COCC(C)n1oc(=O)c(Cc2ccccc2N(C(=O)OCC(C)C)S(=O)(=O)C(F)(F)F)c1C (centres unmarked) [Compound 1-675],90%

# Test system: Amaranthus viridis
# Experiment: as above
# Type: in vivo
# Conditions: 120 g/10a active ingredient, evaluated 14 days after treatment
# How it was run: as §3
row,Compound,"herbicidal rate, Amaranthus viridis"
1,C=CCn1oc(=O)c(Cc2ccccc2N(S(=O)(=O)C(F)(F)F)S(=O)(=O)C(F)(F)F)c1C [Compound 1-985],80%
2,COCC(C)n1oc(=O)c(Cc2ccccc2N(C(=O)OCC(C)C)S(=O)(=O)C(F)(F)F)c1C (centres unmarked) [Compound 1-675],90%

# Test system: Scirpus juncoides
# Experiment: Test Example 1: herbicidal effect test by treatment of rice paddy soil (immediately after seeding)
# Type: in vivo
# Conditions: 120 g/10a active ingredient, dry weight vs untreated area, 14 days after treatment
# How it was run: (§4)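 Pre-emergence paddy water application, 120 g a.i./10 ares, applied immediately post-seeding into ~3 cm flood; glasshouse; duplicate pots; dry weight at 14 d → % inhibition = (1 − treated/untreated) × 100.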
row,Compound,Herbicidal rate (%) Scirpus juncoides
1,C=CCn1oc(=O)c(Cc2ccccc2N(S(=O)(=O)C(F)(F)F)S(=O)(=O)C(F)(F)F)c1C [Compound 1-985],90%
2,COCC(C)n1oc(=O)c(Cc2ccccc2N(C(=O)OCC(C)C)S(=O)(=O)C(F)(F)F)c1C (centres unmarked) [Compound 1-675],90%

# Test system: Echinochloa crus-galli
# Experiment: as above
# Type: in vivo
# Conditions: 120 g/10a active ingredient, dry weight vs untreated area, 14 days after treatment
# How it was run: as §4
row,Compound,Herbicidal rate (%) Echinochloa crus-galli
1,C=CCn1oc(=O)c(Cc2ccccc2N(S(=O)(=O)C(F)(F)F)S(=O)(=O)C(F)(F)F)c1C [Compound 1-985],90%
2,COCC(C)n1oc(=O)c(Cc2ccccc2N(C(=O)OCC(C)C)S(=O)(=O)C(F)(F)F)c1C (centres unmarked) [Compound 1-675],90%

# Test system: broad leaf weeds (Lindernia pyxidaria and Monochoria vaginalis)
# Experiment: as above
# Type: in vivo
# Conditions: Lindernia pyxidaria, 120 g/10a active ingredient, dry weight vs untreated area, 14 days after treatment
# How it was run: as §4
row,Compound,Herbicidal rate (%) Lindernia pyxidaria
1,C=CCn1oc(=O)c(Cc2ccccc2N(S(=O)(=O)C(F)(F)F)S(=O)(=O)C(F)(F)F)c1C [Compound 1-985],100%
2,COCC(C)n1oc(=O)c(Cc2ccccc2N(C(=O)OCC(C)C)S(=O)(=O)C(F)(F)F)c1C (centres unmarked) [Compound 1-675],90%

# Same assay, conditions: Monochoria vaginalis, 120 g/10a active ingredient, dry weight vs untreated area, 14 days after treatment
row,Compound,Herbicidal rate (%) Monochoria vaginalis
1,C=CCn1oc(=O)c(Cc2ccccc2N(S(=O)(=O)C(F)(F)F)S(=O)(=O)C(F)(F)F)c1C [Compound 1-985],70%
2,COCC(C)n1oc(=O)c(Cc2ccccc2N(C(=O)OCC(C)C)S(=O)(=O)C(F)(F)F)c1C (centres unmarked) [Compound 1-675],90%
